Reference: patent US5773646A, “Meta-substituted phenylene derivatives” (G. D. Searle & Co., priority 1997, dated 1998)
pIC50: −log10 of the molar value. Structures can show the parent of a compound that is named as a salt.

How the values were obtained:
[1] = target: T1, Human vitronectin receptor (αv β3) (Homo sapiens, UniProt P05106+P06756); assay: Vitronectin adhesion assay (solid phase receptor assay, biotinylated vitronectin competition); type: binding; conditions: inhibition of 50% of the maximum binding of biotinylated vitronectin; 1 nM labeled ligand, 2 hours, room temperature, highest concentration of test compound 1.0×10^-4 M; read-out: AvB3 IC50
T1 construct: Human vitronectin receptor(αv β3) was purified from human placenta; from tissue; host or cells: human placenta
Experimental: VITRONECTIN ADHESION ASSAY Human vitronectin receptor(αv β3) was purified from human placenta as previously described [Pytela et al., Methods in Enzymology, 144:475-489 (1987)). Human vitronectin was purified from fresh frozen plasma as previously described [Yatohgo et al., Cell Structure and Function, 13:281-292 (1988)]. Biotinylated human vitronectin was prepared by coupling NHS-biotin from Pierce Chemical Company (Rockford, Ill.) to purified vitronectin as previously described [Charo et al., J. Biol. Chem., 266(3):1415-1421 (1991)]. Assay buffer, OPD substrate tablets, and RIA grade BSA were obtained from Sigma (St. Louis, Mo.). Anti-biotin antibody was obtained from Calbiochem (La Jolla, Calif.). Linbro microtiter plates were obtained from Flow Labs (McLean, Va.). ADP reagent was obtained from Sigma (St. Louis, Mo.). Solid Phase Receptor Assays This assay was essentially the same as previously reported [Niiya et al., Blood, 70:475-483 (1987)]. The purified human vitronectin receptor (αv β3) was diluted from stock solutions to 1.0 μg/mL in Tris-buffered saline containing 1.0 mM Ca^++, Mg^++, and Mn^++, pH 7.4 (TBS^+++). The diluted receptor was immediately transferred to Linbro microtiter plates at 100 μL/well (100 ng receptor/well). The plates were sealed and incubated overnight at 4° C. to allow the receptor to bind to the wells. All remaining steps were at room temperature. The assay plates were emptied and 200 μL of 1% RIA grade BSA in TBS^+++ (TBS^+++ /BSA) were added to block exposed plastic surfaces. Following a 2 hour incubation, the assay plates were washed with TBS^+++ using a 96 well plate washer. Logarithmic serial dilution of the test compound and controls were made starting at a stock concentration of 2 mM and using 2 nM biotinylated vitronectin in TBS^+++ /BSA as the diluent. This premixing of labeled ligand with test (or control) ligand, and subsequent transfer of 50 μL aliquots to the assay plate was carried out with a CETUS Propette robot; the final concentration of the labeled ligand was 1 nM and the highest concentration of test compound was 1.0×10^-4 M. The competition occurred for two hours after which all wells were washed with a plate washer as before. Affinity purified horseradish peroxidase labeled goat antibiotin antibody was diluted 1:3000 in TBS^+++ /BSA and 125 μL were added to each well. After 30 minutes, the plates were washed and incubated with OPD/H2 O2 substrate in 100 mM/L Citrate buffer, pH 5.0. The plate was read with a microtiter plate reader at a wavelength of 450 nm and when the maximum-binding control wells reached an absorbance of about 1.0, the final A450 were recorded for analysis. The data were analyzed using a macro written for use with the EXCEL™ spreadsheet program. The mean, standard deviation, and %CV were determined for duplicate concentrations. The mean A450 values were normalized to the mean of four maximum-binding controls (no competitor added)(B-MAX). The normalized values were subjected to a four parameter curve fit algorithm [Rodbard et al., Int.

[2] = target: T2, Human fibrinogen receptor (αIIb β3) (Homo sapiens, UniProt P05106+P08514); assay: Purified IIb/IIIa receptor assay (solid phase receptor assay, biotinylated vitronectin competition); conditions: inhibition of 50% of the maximum binding of biotinylated vitronectin; 1 nM labeled ligand, 2 hours, room temperature, highest concentration of test compound 1.0×10^-4 M
T2 construct: Human fibrinogen receptor (αIIb β3) was purified from outdated platelets; from tissue; host or cells: outdated human platelets
Description: PURIFIED IIb/IIIa RECEPTOR ASSAY Human fibrinogen receptor (αIIb β3) was purified from outdated platelets. (Pytela, R., Pierschbacher, […]., Suzuki, S., and […] acid adhesion receptors", Methods in Enzymology 144(1987):475-489.) Human vitronectin was purified from fresh frozen plasma as described in Yatohgo, T., Izumi, M., Kashiwagi, H., and Hayashi, M., "Novel purification of vitronectin from human plasma by heparin affinity chromatography," Cell Structure and Function 13(1988):281-292. Biotinylated human vitronectin was prepared by coupling NHS-biotin from Pierce Chemical Company (Rockford, Ill.) to purified vitronectin as previously described. (Charo, […]., Phillips, D. R., Hsu, M. A., Scarborough, R. M., "Inhibition of fibrinogen binding to GP IIb/IIIa by a GP IIIa peptide", J. Biol. Chem. 266(3)(1991):1415-1421.) Assay buffer, OPD substrate tablets, and RIA grade BSA were obtained from Sigma (St. Louis, Mo.). Anti-biotin antibody was obtained from Calbiochem (La Jolla, Calif.). Linbro microtiter plates were obtained from Flow Labs (McLean, Va.). ADP reagent was obtained from Sigma (St. Louis, Mo.). Solid Phase Receptor Assays This assay is essentially the same reported in […]., Bader, R., Byers-Ward, […]., Plow, E. F. and Ruggeri, Z. M., "Increased surface expression of the membrane glycoprotein IIb/IIIa complex induced by platelet activation: Relationships to the binding of fibrinogen and platelet aggregation", Blood 70(1987):475-483. The purified human fibrinogen receptor (αIIb β3) was diluted from stock solutions to 1.0 μg/mL in Tris-buffered saline containing 1.0 mM Ca^++, Mg^++, and Mn^++, pH 7.4 (TBS^+++). The diluted receptor was immediately transferred to Linbro microtiter plates at 100 μL/well (100 ng receptor/well). The plates were sealed and incubated overnight at 4° C. to allow the receptor to bind to the wells. All remaining steps were at room temperature. The assay plates were emptied and 200 μL of 1% RIA grade BSA in TBS^+++ (TBS^+++ /BSA) were added to block exposed plastic surfaces. Following a 2 hour incubation, the assay plates were washed with TBS^+++ using a 96 well plate washer. Logarithmic serial dilution of the test compound and controls were made starting at a stock concentration of 2 mM and using 2 nM biotinylated vitronectin in TBS^+++ /BSA as the diluent. This premixing of labeled ligand with test (or control) ligand, and subsequent transfer of 50 μL aliquots to the assay plate was carried out with a CETUS Propette robot; the final concentration of the labeled ligand was 1 nM and the highest concentration of test compound was 1.0×10^-4 M. The competition occurred for two hours after which all wells were washed with a plate washer as before. Affinity purified horseradish peroxidase labeled goat antibiotin antibody was diluted 1:3000 in TBS^+++ /BSA and 125 μL were added to each well. After 30 minutes, the plates were washed and incubated with […]/H2 O2 substrate in 100 mM/L citrate buffer, pH 5.0. The plate was read with a microtiter plate reader at a wavelength of 450 nm and when the maximum-binding control wells reached an absorbance of about 1.0, the final A450 were recorded for analysis. The data were analyzed using a macro written for use with the EXCELTM spreadsheet program. The mean, standard deviation, and %CV were determined for duplicate concentrations. The mean A450 values were normalized to the mean of four maximum-binding controls (no competitor added)(B-MAX). The normalized values were subjected to a four parameter curve fit algorithm, [Robard et al., Int.

| pIC50 [1] | pIC50 [2] | Compound |
| --- | --- | --- |
| 8.41 | 5.50 | CCC(CC(=O)O)c1cccc(CNC(=O)c2cc(NC(=N)N)cc(C(F)(F)F)c2)c1 (racemic) [Example 59, (±) 3-[[[[3-[(aminoiminomethyl)amino]-5(trifluoromethyl)phenyl]carbonyl]amino]methyl]-β-ethylbenzenepropanoic acid, trifluoroacetate salt] |
| 6.77 | 5.09 | O=C(O)COc1cccc(C(=O)/C=C/c2cccc(NC3=NCCN3)c2)c1 [Example 72, 2-[3-[3-[3-[(4,5-dihydro-1H-imidazol-2-yl)amino]phenyl]-1-oxo-2-propenyl]phenoxy]acetic acid, trifluoroacetate salt hydrate] |
| 4.86 | 4.14 | N=C(N)Nc1cccc(C(=O)Nc2cccc(CCC(=O)O)c2)c1 [Example 36, 3-[[[3-[(aminoiminomethyl)amino]phenyl]carbonyl]amino]benzenepropanoic acid, trifluoroacetate salt] |
| 5.77 | 5.12 | COc1ccc2[nH]c(Nc3cccc(C(=O)NCc4cccc(C(C)CC(=O)O)c4)c3)nc2c1 (racemic) [Example 70, (±) 3-[[[[3-[(5-methoxy-1H-benzimidazol-2-yl)amino]phenyl]carbonyl]amino]methyl]-β-methyl benzenepropanoic acid, trifluoroacetate salt] |
| 6.72 | 4.75 | C[C@@H](CC(=O)O)c1cccc(CNC(=O)c2cccc(NC(=N)N)c2)c1 [Example 57, 3-[[[[3-[(aminoiminomethyl)amino]phenyl]carbonyl]amino]methyl]-βS-methylbenzenepropanoic acid] |
| 5.07 | 4.20 | CC(CC(=O)OC(C)(C)C)c1cccc(CNC(=O)c2cccc(NC(=N)N)c2)c1 (stereo not drawn) [Example 39, 1,1-dimethylethyl 3-[[[[3-[(aminoiminomethyl)amino]phenyl]carbonyl]amino]methyl]-β-methyl)benzenepropanoate, trifluoroacetate salt] |
| 6.37 | 5.00 | CC(CC(=O)O)c1cccc(CNC(=O)c2cccc(Nc3nc4ccccc4[nH]3)c2)c1 (racemic) [Example 69, (±) 3-[[[[3-[(1H-benzimidazol-2-yl)amino]phenyl]carbonyl]amino]methyl]-β-methyl benzenepropanoic acid] |
| 7.14 | 5.86 | CC(=O)NC(Cc1cccc(CNC(=O)c2cccc(NC(=N)N)c2)c1)C(=O)O (stereo not shown) [Example 45, N-acetyl-3-[[[[3-[(aminoiminomethyl)amino]phenyl]carbonyl]amino]methyl)phenylalanine, bis(trifluoroacetate) salt] |
| 6.36 | 5.64 | N=C(N)Nc1cccc(COc2cccc(C(CC(=O)O)c3ccccc3)c2)c1 (stereo not drawn) [Example 96, 3-[[3-[(aminoiminomethyl)amino]phenyl]methoxy]-β-phenylbenzenepropanoic Acid, Trifluoroacetate Salt] |
| 9.06 | 5.72 | O=C(O)CC(c1cc(F)cc(F)c1)c1cccc(CNC(=O)c2cccc(NC3=NCCCN3)c2)c1 (racemic) [Example 62, (±) 3,5-difluoro-β-[3-[[[[3-[(1,4,5,6-tetrahydropyrimidin-2-yl)amino]phenyl]carbonyl]amino]methyl]phenyl]benzenepropanoic acid, trifluoroacetate salt monohydrate] |

More lines, now with the values behind:

| Compound | pIC50 [1] | pIC50 [2] |
| --- | --- | --- |
| C[C@H](CC(=O)O)c1cccc(CNC(=O)c2cccc(NC(=N)N)c2)c1 [Example 56, 3-[[[[3-[(aminoiminomethyl)amino]phenyl]carbonyl]amino]methyl]-βR-methylbenzenepropanoic acid, trifluoroacetate salt hydrate] | 8.16 | 5.88 |
| NC(=S)Nc1cccc(S(=O)(=O)Nc2cccc(C(CC(=O)O)c3ccccc3)c2)c1 (stereo not drawn) [Example 10, 3-[[[3-[(aminothioxomethyl)amino]phenyl]sulfonyl]amino]-β-phenylbenzenepropanoic acid] | 6.84 | 5.26 |
| CCOC(=O)CCc1cccc(CNC(=O)c2cccc(NC(N)=O)c2)c1 [Example 28, ethyl 3-[[[[3-[(aminocarbonyl)amino]phenyl]carbonyl]amino]methyl]benzenepropanoate] | < 4.00 | < 4.00 |
| N=C(N)Nc1cccc(C(=O)NCc2cccc(C(CC(=O)O)c3cc(Cl)cc(Cl)c3)c2)c1 (stereo not shown) [Example 54] | 7.70 | 6.84 |
| N=C(N)Nc1cccc(SCc2cccc(C(CC(=O)O)c3ccccc3)c2)c1 (stereo not drawn) [Example 87, 3-[[3-[(aminoiminomethyl)amino]phenylthio]methyl]-β-phenylbenzenepropanoic Acid, Trifluoroacetate Salt] | 7.29 | 5.48 |
| CCC(CC(=O)O)c1cccc(CNC(=O)c2cccc(NC(=N)N)c2)c1 (stereo not drawn) [Example 42, 3-([[[3-[(aminoiminomethyl)amino]phenyl]carbonyl]amino]methyl]-β-ethylbenzenepropanoic acid, trifluoroacetate salt] | 7.93 | 6.33 |
| NC(=O)Nc1cccc(C(=O)Nc2cccc(C(CC(=O)O)c3ccccc3)c2)c1 (stereo not drawn) [Example 5, 3-[[[3-[(aminocarbonyl)amino]phenyl]carbonyl]amino]-β-phenylbenzenepropanoic acid] | 4.82 | 4.67 |
